Article PMC11384084 (Journal of Traditional and Complementary Medicine, 2024)
Entries after “also recorded” stand apart in the source; their conditions may differ. Where two headings read alike, the source gives them in different places.

Key:
[1] = Peak plasma levels (Cmax) of compounds and metabolites on day 14 by UHPLC-MS/MS; format: in vivo, human; conditions: for Cmax: male, human, plasma, 2 weeks, read-out: UA plasma level, median (Cmax day 14)
Procedure: The compounds and their metabolites were measured using a UHPLC-MS/MS system on a Hybrid quadrupole-Orbitrap mass spectrometer (Q Exactive, Thermo Scientific, Waltham, MA, USA) hyphenated with a Thermo Scientific Vanquish Flex ultrahigh-pressure liquid chromatography (UHPLC) system via an electrospray ionization source. For the parallel reaction monitoring (PRM) scan, the resolution, automatic gain control (AGC) target, and maximum injection time (IT) were set at 17500, 2e5, and 100 ms, respectively. The NCE values for each metabolite were individually set, and the details are provided in Supplemental Table 1. The All-Ion Fragmentation (AIF) scan consisted of a scan range of m/z 100–750 with an NCE of 10. The resolution, AGC target, and maximum IT for the AIF scan were set at […], and 200 ms, respectively. More details regarding the preparation and calibration are provided in the Supplementary Methods section.

healthy men [2] = assay: Phase 1 clinical trial safety evaluation, adverse events by CTCAE v4.03; format: in vivo, human; conditions: for Toxicity Grade (CTCAE v4.0) / Relationship To Study Treatment: per event; for Toxicity Grade (CTCAE v4.0) / Relationship To Study Treatment / Event (adverse event term): 2 weeks oral; for Toxicity Grade (CTCAE v4.0) / Adverse Event (Yes/No) / Event (adverse event term): UA 300 mg/day, CURC 1200 mg/day; for Adverse Event (Yes/No) / Event (adverse event term): per subject; for Adverse Event (Yes/No): 2 weeks oral lipid capsules
Source text: We performed a standard 3 × 3 phase 1 design based on the safety evaluation of UA and CURC tested individually and then in combination (Study Schema in Supplemental Fig. 1). We modified the 3 × 3 design to include any toxicities because we selected the maximum dose due to the reported safety of large doses of these compounds. We enrolled subjects for a 2-week study period and used paired samples for individualized comparisons and pooled results for group comparisons.
We recruited healthy men enrolled in the San Antonio Biomarkers of Risk (SABOR) study, a community-based prostate cancer screening cohort. The San Antonio Biomarkers of Risk (SABOR) study cohort was funded by the 10.13039/100000054National Cancer Institute Early Detection Research Network-sponsored Clinical and Epidemiologic Validation Center since its nascent enrollment in 2000 (IRB# HSC20000030H). A separate IRB was approved for the Phase 1 trial (IRB# HSC20190940H). The participants had no prior diagnosis of prostate cancer at the time of enrollment and had varied prostate cancer risk profiles. We used data from the local UT Health San Antonio Data Safety and Monitoring Board (DSMB).
(§1) Safety was compared to evaluate the number, frequency, duration, and relationship of toxicity events to CURC and UA, as defined by the Common Terminology Criteria for Adverse Events (CTCAE) v. 4.03. The secondary outcomes included the measured plasma levels of UA, CURC, and selected metabolites. We also investigated the impact on the microbiome in a paired analysis for changes and the overall theme of imputed bacterial function.

healthy men [3] = assay: Safety laboratory values, baseline vs end of two-week study; format: in vivo, human
Source text: as §1, with “4.03.” left out
Demographics between groups were compared using Fisher's exact test for categorical variables and Student's t-test for continuous variables. Laboratory safety values were analyzed using a paired t-test for differences, with significance set at p < 0.05. ANOVA was used to compare the plasma levels of UA, CURC, and CURC metabolites. Least significant difference (LSD) was used as the post-hoc analysis test to compare values between groups.
Laboratory analysis was performed at baseline and at the end of the two-week study. We then subtracted the values (week 2: baseline) to obtain the differences for each participant. […] Chronic kidney disease (CKD) is based on glomerulary filtration rate (GFR), and CKD stage 3 starts at a value below 60. […] Bicarbonate can be harmful if large changes occur in either direction, but clinicians are usually concerned about metabolic acidosis.

[4] = Human microsomal metabolism of UA alone or with CURC; format: in vitro ADME; conditions: UA 4 μM, HLM, NADPH, 37 °C
Procedure: The respective stock solutions were further diluted using MeOH to prepare calibration curve standards and working solutions. The diluent was prepared by spiking the IS (C-d6 and BA) in 100% MeOH to obtain a concentration of 100 ng/mL. The solutions were stored at −20 °C before use. […] Aliquots of 30 μL were collected at different time points, and the reaction was terminated by adding 120 μL of the diluent. Finally, the collected samples were vigorously vortexed, centrifuged for 10 min at 4 °C and 50 μL of the clear supernatant was transferred to LC-MS vials for analysis. UHPLC–MS analysis was performed using a Thermo Scientific Vanquish UHPLC system coupled with an Orbitrap IQ-X Tribrid mass spectrometer with an electrospray ionization (ESI) interface. […] The H-ESI interface was operated in negative ion mode with interface ion transfer tube temperature 320 °C, vaporizing temperature 250 °C, sheath gas 45 Arb, auxiliary gas 10 Arb, sweep gas 2 Arb, and detector voltage 3.5 kV. […] Data processing was performed using the Thermo Scientific Freestyle software (1.8. SP2 version).

[5] = CURC alone group, 1200 mg/day oral, day 14
[6] = combination group (CurcUA), day 14
[7] = adverse event Creatinine increased
[8] = week 2 minus baseline, n = 6 per group
[9] = Musculoskeletal domain adverse event
[10] = Nervous system domain adverse event

Structure (SMILES) | Adverse Event (Yes/No) (healthy men [2]) | Difference in ALT, median (IQR) (healthy men [3]; [8]) | Difference in AST, median (IQR) (healthy men [3]; [8]) | Difference in Albumin, median (IQR) (healthy men [3]; [8]) | Difference in Alkaline Phosphatase, median (IQR) (healthy men [3]; [8]) | Difference in Bicarbonate, median (IQR) (healthy men [3]; [8]) | Difference in Bilirubin, median (IQR) (healthy men [3]; [8]) | Difference in Calcium, median (IQR) (healthy men [3]; [8]) | Difference in Chloride, median (IQR) (healthy men [3]; [8]) | Difference in Creatinine, median (IQR) (healthy men [3]; [8]) | Difference in Hematocrit, median (IQR) (healthy men [3]; [8]) | Difference in Hemoglobin, median (IQR) (healthy men [3]; [8]) | Difference in Platelets, median (IQR) (healthy men [3]; [8]) | Difference in Sodium, median (IQR) (healthy men [3]; [8]) | Difference in White blood cell (WBC), median (IQR) (healthy men [3]; [8]) | also measured
COc1cc(/C=C/C(=O)CC(=O)/C=C/c2ccc(O[C@@H]3O[C@H](C(=O)O)[C@@H](O)[C@H](O)[C@H]3O)c(OC)c2)ccc1O [CURC glucuronide, curcumin glucuronide] | – | – | – | – | – | – | – | – | – | – | – | – | – | – | – | CURC glucuronide plasma level, median [1, 5]: 24.0 ng/mL; CURC glucuronide plasma level, median [1, 6]: 25 ng/mL
COc1cc(/C=C/C(=O)CC(=O)/C=C/c2ccc(O)c(OC)c2)ccc1O [Curcumin, curcumin] | No and Yes | −1.0 (−3.25 to 0.0) | 2.0 (−2.0 to 3.3) | 0.05 (−0.05 to 0.2) | −2.0 (−5.5 to 9.3) | −1.5 (−4.3 to 0.0) | −0.1 (−0.3 to 0.0) | 0.2 (−0.15 to 0.32) | −0.5 (−1.3 to 0.8) | 0.07 (−0.07 to 0.16) | 0.25 (−1.45 to 2.35) | 0.20 (−0.30 to 0.55) | 7.0 (−5 to 31.5) | 0.0 (−1.5 to 1.0) | 0.15 (−0.43 to 0.68) | Toxicity Grade (CTCAE v4.0) (healthy men [2]; adverse event Bloating): 2; Toxicity Grade (CTCAE v4.0) (healthy men [2]; [7]): 1; Relationship To Study Treatment (healthy men [2]; [7]): Unlikely; Relationship To Study Treatment (healthy men [2]; adverse event Diarrhea): Possible; Event (adverse event term) (healthy men [2]; adverse event Bloating): Bloating; Event (adverse event term) (healthy men [2]; [7]): Creatinine increased; Event (adverse event term) (healthy men [2]; adverse event Diarrhea): Diarrhea; Event (adverse event term) (healthy men [2]; adverse event Flatulence): Flatulence; GFR after 2 weeks, individual participant (healthy men [3]; baseline GFR 45 (CURC arm participant), 76 (CurcUA participant)): 46; Creatinine after treatment in subject with event 'Creatinine increased' (Comments) (healthy men [3]; individual subjects, baselines 1.10, 1.0, 1.13): Creatine increased from 1.10 to 1.24; also recorded: Creatine increased from 1.0 to 1.21; Difference in Glomerular Filtration Rate (GFR), median (IQR) (healthy men [3]; [8]): −5.5 (−12.0 to 4.5); CURC parent compound plasma level, median [1, 5]: 0.42 ng/mL; Highest plasma level of CURC [1, 5]: 0.52 ng/mL; CURC plasma level, median [1, 6]: 0.0 ng/mL
C[C@H]1[C@H](C)CC[C@]2(C(=O)O)CC[C@]3(C)C(=CC[C@@H]4[C@@]5(C)CC[C@H](O)C(C)(C)[C@@H]5CC[C@]43C)[C@H]12 [Ursolic Acid, ursolic acid] | No and Yes | 1.5 (1.0–12.8) | 2.0 (−1.3 to 3.3) | 0.0 (−0.1 to 0.2) | 2.5 (−2.5 to 5.0) | 1.0 (−1.5 to 3.0) | 0.0 (−0.08 to 0.15) | 0.03 (−0.05 to 0.48) | −1.0 (−2.75 to 1.75) | −0.08 (−0.33 to 0.12) | 1.55 (−0.85 to 2.85) | 0.20 (−0.33 to 0.58) | 9.5 (2.5–27) | 0.5 (−1.5 to 2.25) | 0.20 (−0.23 to 0.85) | Number of low-grade gastrointestinal (GI)-related complaints attributed (healthy men [2]; CTCAE v4.03, n): 3; Relationship To Study Treatment (healthy men [2]): Unlikely; Toxicity Grade (CTCAE v4.0) (healthy men [2]; [9]): 1; Toxicity Grade (CTCAE v4.0) (healthy men [2]; [10]): 2; Event (adverse event term) (healthy men [2]; [9]): Joint pain; Event (adverse event term) (healthy men [2]; [10]): Vasovagal Reaction; also recorded: Pre-syncope; UA remaining at 40 min ([4]; UA-only incubations): 47%; UA remaining at 40 min ([4]; ratio 1:4 (UA: CURC)): 73%; Cmax ([1]; UA alone group, UA 300 mg/day oral): 2.7 ng/mL; Cmax ([1]; combination group (CurcUA), UA 300 mg/day + CURC 1200 mg/day oral): 43.8 ng/mL; Increase of UA plasma levels, combination vs UA alone ([1]; median 2.7 to 43.8 ng/mL): 16 fold
